Data published in the NIST ThermoML archive (doi:10.1016/j.jct.2014.01.020).

Test: xn = mol fraction of the nth substance listed
Details: Liquid; for mass density: Vibrating tube method; for viscosity: 101 kPa, Concentric cylinders viscometry

C1CCCCC1 [cyclohexane] + CCCCO
mass density [kg/m3]
Details	x2 = 0.1	x2 = 0.2	x2 = 0.3003	x2 = 0.4005	x2 = 0.4997	x2 = 0.6001	x2 = 0.6999	x2 = 0.7998	x2 = 0.8999
293.15 K, 100 kPa	779.5	781.4	783.9	786.6	789.7	793.1	796.8	800.7	805
293.15 K, 1000 kPa	780.2	782	784.5	787.3	790.3	793.7	797.4	801.3	805.6
293.15 K, 2000 kPa	781	782.9	785.3	788.1	791.1	794.5	798.2	802	806.3
293.15 K, 5000 kPa	783.5	785.3	787.7	790.5	793.4	796.9	800.4	804.3	808.5
293.15 K, 10000 kPa	787.3	789.2	791.6	794.3	797.2	800.5	804	807.9	812
293.15 K, 15000 kPa	791.1	792.8	795.2	797.8	800.8	804	807.5	811.3	815.4
293.15 K, 20000 kPa	794.5	796.3	798.6	801.3	804.2	807.4	810.8	814.5	818.6
303.15 K, 100 kPa	770.1	772	774.6	777.6	780.9	784.5	788.5	792.3	797.1
303.15 K, 1000 kPa	770.8	772.8	775.3	778.3	781.6	785.2	789.1	793.2	797.8
303.15 K, 2000 kPa	771.7	773.7	776.2	779.2	782.5	786	789.9	794.1	798.6
303.15 K, 5000 kPa	774.4	776.3	778.8	781.7	785	788.5	792.4	796.4	800.9
303.15 K, 10000 kPa	778.5	780.4	782.9	785.7	788.9	792.5	796.2	800.2	804.6
303.15 K, 15000 kPa	782.4	784.3	786.7	789.6	792.7	796.1	799.8	803.8	808.1
303.15 K, 20000 kPa	786.2	788	790.4	793.2	796.3	799.6	803.3	807.2	811.5
303.15 K, 30000 kPa	793.2	795	797.4	800.2	803.1	806.4	810	813.8	817.9
303.15 K, 40000 kPa	799.6	801.4	803.8	806.5	809.4	812.6	816.1	819.8	823.8
313.15 K, 100 kPa	760.4	762.5	765.2	768.4	771.8	775.7	779.8	784.3	789.1
313.15 K, 1000 kPa	761.3	763.3	766.1	769.2	772.7	776.5	780.6	785	789.8
313.15 K, 2000 kPa	762.2	764.3	767	770.1	773.6	777.4	781.5	785.9	790.7
313.15 K, 5000 kPa	765.1	767.1	769.7	772.8	776.2	780	784.1	788.4	793.1
313.15 K, 10000 kPa	769.5	771.5	774.1	777.1	780.5	784.1	788.1	792.4	797
313.15 K, 15000 kPa	773.6	775.6	778.2	781.2	784.4	788	791.9	796.1	800.6
313.15 K, 20000 kPa	777.7	779.5	782.1	785	788.3	791.8	795.6	799.8	804.2
313.15 K, 30000 kPa	785.1	787	789.4	792.3	795.4	798.9	802.6	806.6	811
313.15 K, 40000 kPa	791.9	793.7	796.2	799	802	805.3	809	812.9	817.1
313.15 K, 50000 kPa	798.3	800.1	802.5	805.1	808.1	811.4	815	818.8	822.9
313.15 K, 60000 kPa	804.2	806	808.4	810.9	813.8	817	820.5	824.4	–

viscosity [mPa·s]
Details	x2 = 0	x2 = 0.1073	x2 = 0.1991	x2 = 0.2998	x2 = 0.4006	x2 = 0.4997	x2 = 0.6001	x2 = 0.7001	x2 = 0.7997	x2 = 0.8996
293.15 K	0.98	0.997	1.042	1.11	1.277	1.462	1.69	1.95	2.243	2.576
303.15 K	0.824	0.837	0.87	0.924	1.038	1.17	1.337	1.528	1.747	1.998
313.15 K	0.701	0.708	0.731	0.772	0.855	0.95	1.074	1.218	1.382	1.573
